What all share (test): inhibition of tumour cell growth, NCI panel, 48 h
Experiment [1] concerns NCI-H460 lung.
Experiment [2] relates to SF-539 CNS.
Experiment [3] deals with M14 melanoma.
Experiment [4] has as its system MDA-MB-231 breast.
The subject of experiment [5] is MDA-N.
Experiment [6] relates to HL-60(TB) leukemia.
The test system of experiment [7] is OVCAR-4 ovarian.
Experiment [8] relates to KM12 colon.
Experiment [9] concerns SK-MEL-28 melanoma.
For experiment [10], the system named is NCI/ADR-RES ovarian.

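Results reflect a 48-hour exposure of cells in 96-well plates to compound at five concentrations. GI50: concentration for 50% inhibition of growth. The concentration for full growth arrest is given as TGI.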

`CCOC(=O)C(NC(=O)c1ccccc1)(Nc1ccc(S(=O)(=O)Nc2ccc(OC)nn2)cc1)C(F)(F)F` (centres undefined): the TGI in [1], in experiment [2], in experiment [3], in experiment [4], in experiment [5] and in experiment [6] was over 100 µM in each case. Besides, the TGI in experiment [7], in experiment [8], in [9] and in [10] was over 100 µM in each case.
As to `COc1cc2c(cc1OC)-c1[nH]c3ccc([N+](=O)[O-])cc3c1CC(=O)N2`, the TGI in experiment [1] was 6.4 µM; in [2], 0.716 µM; in experiment [3], over 100 µM; in experiment [4], over 100 µM; in experiment [5], over 100 µM; in experiment [6] it was 7.31 µM. The TGI is over 32.1 µM in [7], over 56.1 µM in [8], over 100 µM in [9] and over 100 µM in experiment [10].
As to `Cc1cc2c(cc1-c1cc3c(cc1C)C(C(C)C)=C(O)C(=O)/C3=C\Nc1ccccn1)/C(=C/Nc1ccccn1)C(=O)C(O)=C2C(C)C`, the TGI in [1] is over 100 µM; in experiment [2] it was over 100 µM; in [3], over 100 µM; in experiment [4], over 100 µM; in experiment [5] it was over 100 µM; in experiment [6], 99.2 µM. Moreover, the TGI is over 100 µM in experiment [7], 73.6 µM in experiment [8], over 100 µM in experiment [9] and over 100 µM in experiment [10].
`CCOP(=O)(OCC)C(C)(CC)/N=C(\N)NC#N` (centres undefined): the TGI in [1], in experiment [2], in experiment [3], in experiment [4], in experiment [5] and in [6] was over 100 µM each time. The TGI in [7], in experiment [8], in [9] and in [10] was over 100 µM throughout.
For the compound `CC(=O)OC12OC(C)(C3C(=O)N(c4ccccc4)C(=O)C31)N(c1ccccc1)C2=O` (centres undefined), the TGI in [1], in experiment [2], in experiment [3], in experiment [4], in [5] and in experiment [6] was over 100 µM each time. Also, the TGI in experiment [7], in [8], in [9] and in experiment [10] was over 100 µM throughout.
Turning to `C=CC(=C)CCC(Br)C(C)(C)Cl` (centres undefined), the TGI in experiment [1], in experiment [2], in [3], in experiment [4], in [5] and in experiment [6] was over 100 µM throughout. Moreover, the TGI in experiment [7], in experiment [8], in experiment [9] and in [10] was over 100 µM each time.
Consider `N#CCN1CCCN(CC#N)CCN(CC#N)CCCN(CC#N)CC1`, for which the TGI in [1], in [2], in experiment [3], in experiment [4], in experiment [5] and in [6] was over 100 µM in each case. Further, the TGI in [7], in [8], in [9] and in [10] was over 100 µM each time.
As to `COc1cc(/C=C/c2ccc(S(N)(=O)=O)cc2)cc(OC)c1`, the TGI in [1] is 42.9 µM; in [2], 46.2 µM; in experiment [3] it was over 100 µM; in experiment [4], 46.6 µM; in [5], 56 µM; in [6] it was 42.6 µM. Besides, the TGI in [7] was 50.9 µM; in experiment [8], 57.6 µM; in experiment [9] it was 56.8 µM; in experiment [10], 89.7 µM. Also, the GI50 was 18.8 µM in experiment [2], 18.6 µM in experiment [6], 21.2 µM in experiment [7] and 20.8 µM in experiment [8].
Consider `CCOC(=O)[C@@]12NN=N[C@@H]1[C@H]1CO[C@H](c3ccccc3)N1C2=O`, for which the TGI in experiment [1] is 20.5 µM; in experiment [2] it was 25.3 µM; in experiment [3] it was 33 µM; in experiment [4], 30.6 µM; in [5], 25.7 µM; in experiment [6], over 100 µM. Further, the TGI in [7] was determined as 32.4 µM; in experiment [8], 35 µM; in experiment [9], 19.5 µM; in experiment [10], 75.9 µM.
As to `CCOC(=O)c1cc([N+](=O)[O-])cc([N+](=O)[O-])c1Sc1ncnc2nc[nH]c12`, the TGI in experiment [1] was found to be 33.9 µM; in [2], 15.7 µM; in experiment [3], 2.66 µM; in [4], 24.9 µM; in experiment [5], 5.28 µM; in [6], 4.33 µM. Further, the TGI in experiment [7] was determined as 2.41 µM; in experiment [8], 18.1 µM; in experiment [9], 11.2 µM; in experiment [10], 8.4 µM.
Take `O=C1C=CC(=O)[C@H]2C3C=CC(C4C3C3(Cl)C(Cl)=C(Cl)[C@]4(Cl)C3(Cl)Cl)[C@@H]12` (some centres undefined): the TGI came out at 15.9 µM in experiment [1]; 17.9 µM in experiment [2]; 16 µM in [3]; 16.7 µM in experiment [4]; 15.8 µM in experiment [5]; 4.63 µM in experiment [6]. Further, the TGI turned out to be 16.2 µM in experiment [7], 17 µM in experiment [8], 18.6 µM in experiment [9] and 17.4 µM in experiment [10].
Turning to `Cc1cc2nc(CC(C(F)(F)F)C(F)(F)F)oc2cc1C`, the TGI worked out at 15.3 µM in experiment [1]; 7.66 µM in experiment [2]; 4.72 µM in experiment [3]; 9.09 µM in experiment [4]; 5.85 µM in [5]; 12.5 µM in [6]. In addition, the TGI is 6.92 µM in [7], 10.3 µM in experiment [8], 15.8 µM in [9] and over 43.3 µM in experiment [10].
On to `COc1ccc2nc3c([N+](=O)[O-])ccc(NCCCN(C)C)c3c(N)c2c1`, for which the TGI was 2.59 µM in experiment [1]; 3.36 µM in [2]; 3.61 µM in experiment [3]; 3.09 µM in experiment [4]; 3.47 µM in experiment [5]; 5.86 µM in experiment [6]. The TGI in experiment [7] came out at 3.06 µM; in experiment [8], 3.02 µM; in experiment [9], 3.04 µM; in [10], 4.25 µM.
`NCCN(CCN)/[N+]([O-])=N/O`: the TGI in experiment [1], in experiment [2], in [3], in [4], in experiment [5] and in experiment [6] was over 100 µM in each case. Besides, the TGI in [7], in experiment [8], in experiment [9] and in experiment [10] was over 100 µM in each case.
As for `O=C(c1cccnc1)N1N=C(c2ccc3c(c2)OCO3)CC1(O)c1cc(F)c(Cl)cc1Cl` (centres undefined), the TGI in experiment [1] is 36.9 µM; in [2], 33.6 µM; in experiment [3] it was over 100 µM; in experiment [4], 40.5 µM; in experiment [5], over 100 µM; in experiment [6], 52.2 µM. The TGI in experiment [7] was over 100 µM; in experiment [8], over 100 µM; in experiment [9], 77.5 µM; in [10] it was 50.4 µM.
Regarding `O=C1c2c(F)c(F)c(F)c(F)c2SC2=Nc3cccc4cccc(c34)N12`, the TGI was 29.3 µM in experiment [1]; 14 µM in experiment [2]; 13.1 µM in experiment [3]; 11.7 µM in experiment [4]; 16.7 µM in experiment [5]; over 20 µM in [6]. Moreover, the TGI in experiment [7] is 9 µM; in [8], 10.2 µM; in experiment [9], 15.9 µM; in [10] it was 10.2 µM.
Turning to `COc1cc(/C=C/C2=NN(c3cccc(S(=O)(=O)O)c3)C3(C2)SCC(=O)N3c2nc3ccccc3s2)cc(OC)c1OC` (centres undefined), the TGI in [1], in [2], in [3], in experiment [4], in experiment [5] and in [6] was over 100 µM in each case. The TGI in experiment [7], in experiment [8], in experiment [9] and in experiment [10] was over 100 µM in each case.
`O=C(NCCCc1cn[nH]c(=O)n1)c1cccc2nc3ccccc3nc12`: the TGI in experiment [1], in experiment [2], in [3], in [4], in [5] and in experiment [6] was over 100 µM throughout. The TGI in [7], in [8], in [9] and in experiment [10] was over 100 µM each time.
